# Experimental data as given in patent US12384765B2, “Catecholamine prodrugs for use in the treatment of Parkinson's Disease” (H. Lundbeck A/S, priority 2019, dated 2025).
# “Also recorded” adds a separate entry of the source.
# Experiments:
# [1] = PK experiments in rats, plasma compound (I) after oral dosing; type: in vivo, Han Wistar rats; settings: oral dosing, rats
# Procedure: Plasma was placed on water-ice following collection. Final storage at approximately −70° C.
# Mobile phase B: Acetonitrile. […] Flow rate 0.5 mL/min.
# The rats had unrestricted access to the diet.
# Mobile phase B: Acetonitrile+0.2% formic acid. […] Flow rate 0.3 mL/min.
# The rats received a standard laboratory diet Teklad 2014C. The rats had unrestricted access to the diet.
# [2] = Conversion of compounds in human plasma; type: in vitro ADME; settings: 1 μM test compound, 37° C., 0-6 hr; nd: not detected
# Procedure: Frozen human plasma was thawed and then centrifuged at 3200×g for 5 min to remove debris. The pH value of the supernatant was then measured and adjusted to 7.4±0.1 by adding 1% phosphoric acid or 1 N sodium hydroxide. 2 μL of dosing solution (50 μM for test compounds and 100 μM for positive control (propantheline bromide)) was mixed with 98 μL of blank plasma to achieve 1 μM test compound and 2 μM positive control of final concentration. The mixture was incubated, and samples were withdrawn from the incubations at the pre-determined time points of 0, 0.5, 1, 2, 4 and 6 hr (in duplicate) at 37° C. in water bath. At each corresponding time point 10 μL inhibitor and 20 μL ascorbic acid and 2 μL formic acid (20%) are added, and then added 400 μL of “stop solution” (200 ng/mL tolbutamide plus 200 ng/mL labetalol in 50% ACN/MeOH) to precipitate protein. The substance was mixed thoroughly and thereafter Centrifugated at 4,000 rpm for 20 minutes. Then an aliquot of supernatant (50 μL) was transferred from each well to a sample plate and mixed with 100 μL ultrapure water. The plate was shaked at 800 rpm for about 10 minutes before submitting to LC-MS/MS analysis.
# (§1) Mass spectrometer (LC-MS/MS) Shimadzu LC 20-AD Shimadzu UHPLC API 4000. Analytical column ACQUITY UPLC® BEH Phenyl 1.7 μm 2.1×50 mm. Mobile phase A: 0.1% Formic Acid in Water. Mobile phase B: 0.1% Formic Acid in Acetonitrile. […] Flow rate 0.7 mL/min.
# [3] = test system: human hepatocytes; assay: Conversion of compounds in human hepatocytes; type: in vitro ADME; settings: 1 μM compound, 37° C.; nd: not detected
# Procedure: Incubations were conducted in 96-well plates at 1 μM compound concentration in duplicate. The hepatocyte cell concentration was 0.5×10^6 cells/mL used for final incubation at 37° C. in an incubator of 5% CO2 95% relative humidity. The medium control samples were included at 0 and 60 minutes in the absence of cells. The total organic concentration was 1% (DMSO 0.1%) in the final incubation. The controls, (7-ethoxycoumarin and 7-hydroxycoumarin) was incubated parallel at 3 μM. 2 μL of dosing solution (50 μM for test compounds and 100 μM for positive control) was mixed with 98 μL of 100 mM PBS to achieve 1 μM test compound and 2 μM positive control of final concentration. The mixture was incubated, and samples were withdrawn from the incubations at pre-determined time points of 0, 0.5, 1, 2, 4 and 6 hr (in duplicate) at 37° C. in water bath. To each sample, 10 μL inhibitor and 20 μL ascorbic acid and 2 μL formic acid (20%) were added followed by 400 μL of stop solution (200 ng/mL tolbutamide plus 200 ng/mL labetalol in 50% ACN/MeOH). The substance was mixed thoroughly and thereafter centrifuged at 4,000 rpm for 20 minutes. An aliquot of supernatant (50 μL) from each well were transferred to a sample plate and mixed with 100 μL ultrapure water. The plate was shaked at 800 rpm for about 10 minutes before submitting to LC-MS/MS analysis.
# as §1
# [4] = molecular target: human 5-HT2B receptor (Homo sapiens (Human), UniProt P41595); assay: 5-HT2B agonist activity assay (IP1 production, HTRF); type: cell-based; settings: read-out: 5-HT2B agonist activity, percent of control response
# human 5-HT2B receptor, sequence (P41595 whole entry): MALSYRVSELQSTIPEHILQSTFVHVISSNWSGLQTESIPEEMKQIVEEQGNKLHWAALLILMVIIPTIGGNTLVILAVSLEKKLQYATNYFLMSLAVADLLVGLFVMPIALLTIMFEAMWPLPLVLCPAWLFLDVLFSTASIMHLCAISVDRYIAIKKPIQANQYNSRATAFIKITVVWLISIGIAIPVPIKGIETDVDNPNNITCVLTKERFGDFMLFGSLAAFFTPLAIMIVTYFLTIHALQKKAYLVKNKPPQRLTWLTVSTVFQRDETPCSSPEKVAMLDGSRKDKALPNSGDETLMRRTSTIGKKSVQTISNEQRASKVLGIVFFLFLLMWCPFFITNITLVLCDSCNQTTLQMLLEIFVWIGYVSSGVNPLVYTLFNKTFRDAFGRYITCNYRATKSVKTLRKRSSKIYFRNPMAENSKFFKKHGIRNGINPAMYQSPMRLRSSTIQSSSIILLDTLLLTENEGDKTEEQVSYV
# Procedure: Evaluation of the agonist activity of compounds (I), (Ia), (Ib), (Ic), (Ia-iab), compound (2), compound (9), compound (15), compound (27), A2, A3, and A7 at the human 5-HT2B receptor was performed by Eurofins/Cerep (France) measuring the compound effects on inositol monophosphate (IP1) production using the HTRF detection method. Briefly, the human 5-HT2B receptor was expressed in transfected CHO cells. The cells were suspended in a buffer containing 10 mM Hepes/NaOH (pH 7.4), 4.2 mM KCl, 146 mM NaCl, 1 mM CaCl2, 0.5 mM MgCl2, 5.5 mM glucose and 50 mM LiCl, then distributed in microplates at a density of 4100 cells/well and incubated for 30 minutes at 37° C. in the presence of buffer (basal control), test compound or reference agonist. For stimulated control measurement, separate assay wells contained 1 μM 5-HT. Following incubation, the cells were lysed and the fluorescence acceptor (fluorophen D2-labeled IP1) and fluorescence donor (anti-IP1 antibody labeled with europium cryptate) were added. After 60 minutes at room temperature, the fluorescence transfer was measured at lambda(Ex) 337 nm and lambda(Em) 620 and 665 nm using a microplate reader (Rubystar, BMG). The IP1 concentration was determined by dividing the signal measured at 665 nm by that measured at 620 nm (ratio). The results were expressed as a percent of the control response to 1 μM 5-HT. The standard reference agonist was 5-HT, which was tested in each experiment at several concentrations to generate a concentration-response curve from which its EC50 value is calculated as described above for dopamine functional assays.
# [5] = test system: male CD rats; assay: Rat locomotor activity (hyperactivity) assay, open field; type: in vivo; settings: (Id-ia) 10 to 300 μg/kg p.o.; apomorphine 3 mg/kg s.c.; pramipexole 0.3 mg/kg s.c.
# Procedure: In total, 206 male CD rats (Charles River, Germany) weighing 200-250 grams (165-190 grams upon arrival) were used in the study. Animals were housed at a standard temperature (22±1° C.) and in a light-controlled environment (lights on from 7 am to 8 pm) with ad libitum access to food and water. The experiment described below was performed in accordance with the standard operating procedures of Charles River Discovery Research Services Finland Ltd. and in accordance with the national Animal Experiment Board of Finland (Elainkoelautakunta, ELLA) authority on animal testing.
# The test device is a square Plexiglass-arena (measuring 40×40×40 cm), in which the movement paths of the rats are recorded by an activity monitor (Med. Associates Inc.). Before the test period is initiated, rats are habituated to their test cage for 60 minutes. Upon completion of habituation, animals were treated with either compound or vehicle and placed back into the open field apparatus. The main test parameter measured is ambulatory distance (recorded in 5 minute segments). Overall time of measurement after receiving initial treatment was 360 minutes. Total follow up period in the study was 420 minutes, including 60 minutes of habituation.
# Blood samples were taken and processed and analyzed as described under PK experiments in rats in Example 3.
smiles,measurement,setting,value
"CCCN1CCC[C@@H]2Cc3c(ccc(O[C@@H]4O[C@H](C(=O)O)[C@@H](O)[C@H](O)[C@H]4O)c3O[C@@H]3O[C@H](C(=O)O)[C@@H](O)[C@H](O)[C@H]3O)C[C@H]21 [(Id-iab), (2S,2′S,3S,3′S,4S,4′S,5R,5′R,6S,6′S)-6,6′-(((4aR,10aR)-1-propyl-1,2,3,4,4a,5,10,10a-octahydrobenzo[g]quinoline-6,7-diyl)bis(oxy))bis(3,4,5-trihydroxytetrahydro-2H-pyran-2-carboxylic acid)]","Observed metabolite, In vivo PK study after oral dosing (rats)",[1],Compound (I)
same,"Observed metabolite, Incubation in human plasma",[2],Compound (I)
same,"Observed metabolite, Incubation in human hepatocytes",[3],Compound (I)
"CCCN1CCC[C@@H]2Cc3c(ccc(OCc4ccccc4)c3O[C@@H]3O[C@H](C(=O)OC)[C@@H](OC(C)=O)[C@H](OC(C)=O)[C@H]3OC(C)=O)C[C@H]21 [Compound (1), (2S,3R,4S,5S,6S)-2-(((4aR,10aR)-7-(benzyloxy)-1-propyl-1,2,3,4,4a,5,10,10a-octahydrobenzo[g]quinolin-6-yl)oxy)-6-(methoxycarbonyl)tetrahydro-2H-pyran-3,4,5-triyl triacetate]","Observed metabolite, Incubation in human plasma",[2],"Compound A2,; also recorded: compound (2)"
same,"Observed metabolite, Incubation in human hepatocytes",[3],"Compound A2,; also recorded: Compound (4)"
"CCCN1CCC[C@@H]2Cc3c(ccc(OCc4ccccc4)c3O[C@@H]3O[C@H](C(=O)OCc4ccccc4)[C@@H](OC(=O)C(C)(C)C)[C@H](OC(=O)C(C)(C)C)[C@H]3OC(=O)C(C)(C)C)C[C@H]21 [Compound (5), (2S,3R,4S,5S,6S)-2-(((4aR,10aR)-7-(benzyloxy)-1-propyl-1,2,3,4,4a,5,10,10a-octahydrobenzo[g]quinolin-6-yl)oxy)-6-((benzyloxy)carbonyl)tetrahydro-2H-pyran-3,4,5-triyl tris(2,2-dimethylpropanoate)]","Observed metabolite, Incubation in human plasma",[2],Compound (24)
same,"Observed metabolite, Incubation in human hepatocytes",[3],Compound (24)
"CCCN1CCC[C@@H]2Cc3c(ccc(OCc4ccccc4)c3O[C@@H]3O[C@H](C(=O)OCC)[C@@H](OC(C)=O)[C@H](OC(C)=O)[C@H]3OC(C)=O)C[C@H]21 [Compound (10), (2S,3R,4S,5S,6S)-2-(((4aR,10aR)-7-(benzyloxy)-1-propyl-1,2,3,4,4a,5,10,10a-octahydrobenzo[g]quinolin-6-yl)oxy)-6-(ethoxycarbonyl)tetrahydro-2H-pyran-3,4,5-triyl triacetate]","Observed metabolite, Incubation in human plasma",[2],"Compound A2,; also recorded: Compound (4)"
same,"Observed metabolite, Incubation in human hepatocytes",[3],"Compound A2,; also recorded: Compound (4)"
"CCCN1CCC[C@@H]2Cc3c(ccc(OCc4ccccc4)c3O[C@@H]3O[C@H](C(=O)OCC)[C@@H](OC(=O)C(C)(C)C)[C@H](OC(=O)C(C)(C)C)[C@H]3OC(=O)C(C)(C)C)C[C@H]21 [Compound (13), (2S,3R,4S,5S,6S)-2-(((4aR,10aR)-7-(benzyloxy)-1-propyl-1,2,3,4,4a,5,10,10a-octahydrobenzo[g]quinolin-6-yl)oxy)-6-(ethoxycarbonyl)tetrahydro-2H-pyran-3,4,5-triyl tris(2,2-dimethylpropanoate)]","Observed metabolite, Incubation in human hepatocytes",[3],Compound (14)
"CCCN1CCC[C@@H]2Cc3c(ccc(OC)c3O[C@@H]3O[C@H](C(=O)OCc4ccccc4)[C@@H](OC(=O)C(C)(C)C)[C@H](OC(=O)C(C)(C)C)[C@H]3OC(=O)C(C)(C)C)C[C@H]21 [Compound (20), (2S,3S,4S,5R,6S)-2-((benzyloxy)carbonyl)-6-(((4aR,10aR)-7-methoxy-1-propyl-1,2,3,4,4a,5,10,10a-octahydrobenzo[g]quinolin-6-yl)oxy)tetrahydro-2H-pyran-3,4,5-triyltris(2,2-dimethylpropanoate)]","Observed metabolite, Incubation in human plasma",[2],Compound (21)
same,"Observed metabolite, Incubation in human hepatocytes",[3],Compound (21)
"CCCN1CCC[C@@H]2Cc3c(ccc(OC)c3O[C@@H]3O[C@H](C(=O)OC)[C@@H](OC(=O)C(C)(C)C)[C@H](OC(=O)C(C)(C)C)[C@H]3OC(=O)C(C)(C)C)C[C@H]21 [Compound (22), (2S,3S,4S,5R,6S)-2-((methoxy)carbonyl)-6-(((4aR,10aR)-7-methoxy-1-propyl-1,2,3,4,4a,5,10,10a-octahydrobenzo[g]quinolin-6-yl)oxy)tetrahydro-2H-pyran-3,4,5-triyl tris(2,2-dimethylpropanoate)]","Observed metabolite, Incubation in human plasma",[2],Compound (21)
same,"Observed metabolite, Incubation in human hepatocytes",[3],Compound (21)
"CCCN1CCC[C@@H]2Cc3c(ccc(OCc4ccccc4)c3O[C@@H]3O[C@H](C(=O)OC)[C@@H](OC(=O)C(C)(C)C)[C@H](OC(=O)C(C)(C)C)[C@H]3OC(=O)C(C)(C)C)C[C@H]21 [Compound (25), (2S,3R,4S,5S,6S)-2-(((4aR,10aR)-7-(benzyloxy)-1-propyl-1,2,3,4,4a,5,10,10a-octahydrobenzo[g]quinolin-6-yl)oxy)-6-(methoxycarbonyl)tetrahydro-2H-pyran-3,4,5-triyl tris(2,2-dimethylpropanoate)]","Observed metabolite, Incubation in human plasma",[2],"Compound A2,; also recorded: Compound (24)"
same,"Observed metabolite, Incubation in human hepatocytes",[3],"Compound A2,; also recorded: Compound (24)"
"CCCN1CCC[C@@H]2Cc3c(ccc(OC)c3O)C[C@H]21 [Compound A7, (4aR,10aR)-7-methoxy-1-propyl-1,2,3,4,4a,5,10,10a-octahydrobenzo[g]quinolin-6-ol]","Observed metabolite, In vivo PK study after oral dosing (rats)",[1],Compound (I)
same,activity at 10 µM,[4],27%
same,"Observed metabolite, Incubation in human hepatocytes",[3],Compound (I)
"CCCN[C@H]1CCc2nc(N)sc2C1 [Pramipexole, pramipexole, reference compound]",effect on locomotor activity,[5],increase in activity
